Test results taken from ChEMBL document CHEMBL1201862, “PubChem BioAssay data set” (2004).
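These data come from cells grown in 96-well plates and exposed to compound for 48 hours at five concentrations. GI50 marks 50% less growth.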 Activity calls are given as the source filed them. No stated cut-off is given here; in the data, active = GI50 up to about 1.1 µM and inactive = higher.

Assays:
Test in all cases: inhibition of tumour cell growth, NCI panel, 48 h
ACHN = tested on: ACHN
CAKI-1 = tested on: CAKI-1
HCT-116 = tested on: HCT-116
HL-60 = tested on: HL-60
K562 = tested on: K562
M14 = tested on: M14
MDA-MB-231 = tested on: MDA-MB-231
MDA-N = tested on: MDA-N
MOLT-4 = tested on: MOLT-4
NCI-H460 = tested on: NCI-H460
NCI-H522 = tested on: NCI-H522
OVCAR-4 = tested on: OVCAR-4
OVCAR-5 = tested on: OVCAR-5
SF-295 = tested on: SF-295
SK-MEL-2 = tested on: SK-MEL-2
SK-MEL-5 = tested on: SK-MEL-5
SNB-19 = tested on: SNB-19
SW-620 = tested on: SW-620
UO-31 = tested on: UO-31
Malme-3M = tested on: Malme-3M

Measured: GI50

CSc1ccc(NC(=O)CCl)cc1
inactive: ACHN > 10 µM | CAKI-1 2.97 µM | HCT-116 3.03 µM | HL-60 3.33 µM | K562 3.13 µM | M14 1.92 µM | MDA-MB-231 7.31 µM | MDA-N 4.84 µM | MOLT-4 3.4 µM | NCI-H460 2.41 µM | NCI-H522 1.95 µM | OVCAR-4 > 10 µM | OVCAR-5 3.33 µM | SF-295 2.58 µM | SK-MEL-2 1.81 µM | SK-MEL-5 2.08 µM | SNB-19 4.86 µM | SW-620 8.32 µM | UO-31 2.23 µM

CC(=O)c1sc(=N)n(-c2c(C)cccc2C)c1C
inactive: ACHN > 100 µM | HL-60 > 100 µM | K562 > 100 µM | M14 > 100 µM | MDA-MB-231 > 100 µM | MDA-N > 100 µM | MOLT-4 > 100 µM | Malme-3M > 100 µM | NCI-H460 > 100 µM | NCI-H522 > 100 µM | OVCAR-4 > 100 µM | OVCAR-5 > 100 µM | SK-MEL-2 > 100 µM | SK-MEL-5 > 100 µM | SNB-19 > 100 µM | SW-620 > 100 µM | UO-31 > 100 µM

CC1=NN2C(=O)CC(=O)N=C2S1
inactive: ACHN > 100 µM | CAKI-1 > 100 µM | HCT-116 > 100 µM | HL-60 > 100 µM | K562 > 100 µM | M14 > 100 µM | MDA-MB-231 > 100 µM | MDA-N > 100 µM | MOLT-4 > 100 µM | Malme-3M > 100 µM | NCI-H460 > 100 µM | NCI-H522 > 100 µM | OVCAR-4 > 100 µM | OVCAR-5 > 100 µM | SF-295 > 100 µM | SK-MEL-2 > 100 µM | SK-MEL-5 > 100 µM | SNB-19 > 100 µM | SW-620 > 100 µM

Cc1nc(C)c(N2CCN(Cc3ccccc3)CC2)c(O)n1
inactive: ACHN > 100 µM | HCT-116 > 100 µM | HL-60 > 100 µM | K562 > 100 µM | M14 > 100 µM | MDA-MB-231 > 100 µM | MDA-N > 100 µM | MOLT-4 > 100 µM | Malme-3M > 100 µM | NCI-H460 > 100 µM | NCI-H522 > 100 µM | OVCAR-4 > 100 µM | SF-295 > 100 µM | SK-MEL-5 > 100 µM | SNB-19 > 100 µM | SW-620 > 100 µM | UO-31 > 100 µM

CCC(=O)C(c1ccccc1)c1ccccn1 (stereo not drawn)
inactive: ACHN > 100 µM | CAKI-1 > 100 µM | HCT-116 > 100 µM | HL-60 > 100 µM | M14 > 100 µM | MDA-MB-231 > 100 µM | MDA-N > 100 µM | Malme-3M > 100 µM | NCI-H460 > 100 µM | NCI-H522 > 100 µM | OVCAR-4 > 100 µM | OVCAR-5 > 100 µM | SF-295 > 100 µM | SK-MEL-2 > 100 µM | SK-MEL-5 > 100 µM | SNB-19 > 100 µM | SW-620 > 100 µM | UO-31 > 100 µM

O=C(O)C1CCCN(CCc2c[nH]c3ccccc23)C1 (stereo not drawn)
inactive: ACHN > 100 µM | CAKI-1 > 100 µM | HCT-116 > 100 µM | HL-60 > 100 µM | K562 > 100 µM | M14 > 100 µM | MDA-MB-231 > 100 µM | MDA-N > 100 µM | MOLT-4 > 100 µM | Malme-3M > 100 µM | NCI-H460 > 100 µM | NCI-H522 > 100 µM | OVCAR-4 > 100 µM | OVCAR-5 > 100 µM | SF-295 > 100 µM | SK-MEL-2 > 100 µM | SNB-19 > 100 µM | SW-620 > 100 µM

CSc1ncnc2c1cnn2Cc1cn(COCC(O)CO)nn1 (stereo not drawn)
inactive: ACHN > 100 µM | CAKI-1 > 100 µM | HCT-116 > 100 µM | HL-60 > 100 µM | M14 > 100 µM | MDA-MB-231 > 100 µM | MDA-N > 100 µM | MOLT-4 > 100 µM | NCI-H522 21.2 µM | OVCAR-4 > 100 µM | OVCAR-5 > 100 µM | SF-295 > 100 µM | SK-MEL-2 > 100 µM | SK-MEL-5 > 100 µM | SNB-19 > 100 µM | SW-620 > 100 µM | UO-31 > 100 µM

CC(=O)[C@]12OC(=O)C3=C1[C@H](CC[C@@H]3C)[C@@H](C)C[C@H]2C=C(C)C
inactive: ACHN 8.11 µM | CAKI-1 6.49 µM | HCT-116 6.55 µM | HL-60 7.71 µM | K562 5.6 µM | M14 8.39 µM | MDA-MB-231 8.2 µM | MDA-N 7.59 µM | MOLT-4 10 µM | NCI-H460 8.63 µM | NCI-H522 5.36 µM | OVCAR-5 8.11 µM | SF-295 6.4 µM | SK-MEL-2 7.82 µM | SK-MEL-5 5.52 µM | SNB-19 8.09 µM | SW-620 7.55 µM | UO-31 8.22 µM
